Source: patent publication US8518957B2, “Methanocarba adenosine derivatives, pharmaceutical compositions, and method of reducing intraocular pressure” (The United States of America, as represented by the …, priority 2009, dated 2013)

Tests used:
human A1 AR = biological target: T1, human A1 AR (Homo sapiens, UniProt P30542); test: Radioligand binding at human A1 AR ([3H]NECA, membranes of CHO cells); details: for Ki: Example 7, agonist radioligand [3H]45, read-out: AR Affinity Ki, nM, A1
T1 construct: expressed in transfected cells
T1 sequence (P30542 1-326): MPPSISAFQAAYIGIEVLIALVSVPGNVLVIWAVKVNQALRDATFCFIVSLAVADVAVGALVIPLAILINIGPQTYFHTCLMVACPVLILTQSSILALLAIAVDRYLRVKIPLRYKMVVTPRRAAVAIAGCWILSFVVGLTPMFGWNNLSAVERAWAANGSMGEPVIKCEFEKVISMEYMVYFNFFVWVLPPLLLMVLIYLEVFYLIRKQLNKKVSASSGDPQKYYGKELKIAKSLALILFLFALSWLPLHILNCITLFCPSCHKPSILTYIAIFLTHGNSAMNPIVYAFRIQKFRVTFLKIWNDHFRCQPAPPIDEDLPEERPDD
Description: (§1) [^3H](2-[p-(2-Carboxyethyl)phenyl-ethylamino]-5′-N-ethylcarboxamido-adenosine) (37, [^3H]CGS21680, 40.5 Ci/mmol) and [^125I]N^6-(4-amino-3-iodobenzyl)adenosine-5′-N-methyluronamide (38, [^125I]I-AB-MECA, 2200 Ci/mmol) were purchased from Perkin-Elmer Life and Analytical Science (Boston, Mass.). Test compounds were prepared as 5 mM stock solutions in DMSO and stored frozen at −20° C.
(§2) CHO cells stably expressing the recombinant hA1 and hA3Rs, and HEK-293 cells stably expressing the hA2AAR were cultured in Dulbecco's modified Eagle medium (DMEM) and F12 (1:1) supplemented with 10% fetal bovine serum, 100 units/mL penicillin, 100 μg/mL streptomycin, and […] glutamine. In addition, 800 μg/mL geneticin was added to the A2A media, while 500 μg/mL hygromycin was added to the A1 and A3 media. After harvesting, cells were homogenized and suspended in PBS. Cells were then centrifuged at 240 g for 5 min, and the pellet was resuspended in 50 mM Tris-HCl buffer (pH 7.5) containing 10 mM MgCl2. The suspension was homogenized and was then ultra-centrifuged at 14,330 g for 30 min at 4° C. The resultant pellets were resuspended in Tris buffer, incubated with adenosine deaminase (3 units/mL) for 30 min at 37° C. The suspension was homogenized with an electric homogenizer for 10 sec, pipetted into 1 mL vials and then stored at −80° C. until the binding experiments were conducted. The protein concentration was measured using the BCA Protein Assay Kit from Pierce Biotechnology, Inc. (Rockford, Ill.).
(§3) Into each tube in the binding assay was added 50 μL of increasing concentrations of the test ligand in Tris-HCl buffer (50 mM, pH 7.5) containing 10 mM MgCl2, 50 μl, of the appropriate agonist radioligand, and finally 100 μL of membrane suspension. For the A1AR (22 μg of protein/tube) the radioligand used was [^3H]36 (final concentration of 3.5 nM). For the A2AAR (20 μg/tube) the radioligand used was [^3H]37 (10 nM). For the A3AR (21 μg/tube) the radioligand used was [^125I]38 (0.34 nM). Nonspecific binding was determined using a final concentration of 10 μM unlabeled 36 diluted with the buffer. The mixtures were incubated at 25° C. for 60 min in a shaking water bath. Binding reactions were terminated by filtration through Brandel GF/B filters under a reduced pressure using a M-24 cell harvester (Brandel, Gaithersburg, Md.). Filters were washed three times with 3 mL of 50 mM ice-cold Tris-HCl buffer (pH 7.5). Filters for A1 and A2AAR binding were placed in scintillation vials containing 5 mL of Hydrofluor scintillation buffer and counted using a Perkin Elmer Liquid Scintillation Analyzer (Tri-Carb 2810TR). Filters for A3AR binding were counted using a Packard Cobra II γ-counter. The Ki values were determined using GraphPad Prism for all assays.
(§4) [^3H](2-[p-(2-carboxyethyl)phenyl-ethylamino]-5′-N-ethylcarboxamido-adenosine) ([^3H]CGS21680, 40.5 Ci/mmol) and [^125I]N^6-(4-amino-3-iodobenzyl)adenosine-5′-N-methyluronamide ([^125I]I-AB-MECA, 2200 Ci/mmol) were purchased from PerkinElmer. Test compounds were prepared as 5-mM stock solutions in DMSO and stored frozen at −20° C.
(§5) Chinese hamster ovary (CHO) cells were generated by stably expressing the recombinant hA1 and hA3 and human embryonic kidney (HEK) 293 cells stably expressing the hA2AAR in DMEM and F12 (1:1) supplemented with 10% fetal bovine serum, 100 units/mL penicillin, 100 μg/mL streptomycin, and 2 μmol/mL glutamine. 800 μg/mL Geneticin were added to the A2A media and 500 μg/mL hygromycin to the A1 and A3 media. After harvesting the cells, they were homogenized with an electric homogenizer for 10 sec, pipetted them into 1-mL vials, and then stored them at −80° C. until the binding experiments were conducted. The protein concentration was measured with a BCA Protein Assay Kit from Pierce Biotechnology (Rockford, Ill.). […]

hA2AAR = biological target: T2, hA2AAR (Homo sapiens, UniProt P29274); test: Radioligand binding at human A2A AR ([3H]CGS21680, membranes of HEK-293 cells)
T2 construct: expressed in transfected cells
T2 sequence (P29274 whole entry): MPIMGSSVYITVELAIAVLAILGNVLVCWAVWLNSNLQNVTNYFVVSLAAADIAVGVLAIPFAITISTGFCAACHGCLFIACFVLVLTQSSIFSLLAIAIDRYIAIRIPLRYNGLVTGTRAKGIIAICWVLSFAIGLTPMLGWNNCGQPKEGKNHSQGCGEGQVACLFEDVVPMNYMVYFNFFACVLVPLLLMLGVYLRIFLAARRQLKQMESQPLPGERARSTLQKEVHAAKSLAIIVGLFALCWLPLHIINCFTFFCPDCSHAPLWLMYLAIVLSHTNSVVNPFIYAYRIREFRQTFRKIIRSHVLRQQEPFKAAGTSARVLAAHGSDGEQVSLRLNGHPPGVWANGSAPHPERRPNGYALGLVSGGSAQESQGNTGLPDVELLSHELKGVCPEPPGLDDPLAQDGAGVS
Description: as §1, §2, §3, §4, §5

human A3AR = biological target: T3, human A3AR (Homo sapiens, UniProt P0DMS8); test: Radioligand binding at human A3 AR ([125I]I-AB-MECA, membranes of CHO cells); details: Example 7; agonist radioligand [125I]47; read-out: AR Affinity Ki, nM, A3
T3 construct: expressed in transfected cells
T3 sequence (P0DMS8 1-318): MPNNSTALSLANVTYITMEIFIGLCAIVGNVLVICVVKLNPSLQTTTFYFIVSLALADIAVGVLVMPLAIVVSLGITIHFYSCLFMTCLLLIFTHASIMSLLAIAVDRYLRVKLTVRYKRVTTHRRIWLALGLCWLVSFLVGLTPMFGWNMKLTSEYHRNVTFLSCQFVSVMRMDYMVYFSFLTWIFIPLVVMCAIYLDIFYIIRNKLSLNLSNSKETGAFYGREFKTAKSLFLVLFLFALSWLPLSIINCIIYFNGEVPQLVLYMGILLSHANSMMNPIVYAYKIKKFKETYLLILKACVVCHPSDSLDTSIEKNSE
Description: Test compounds were prepared as 5 mM stock solutions in DMSO and stored frozen at −20° C.
as §2
as §3, with “For the A1AR (22 μg of protein/tube) the radioligand used was [^3H]36 (final concentration of 3.5 nM).” left out, “For the A3AR (21 μg/tube) the radioligand used was [^125I]38 (0.34 nM).” left out, “Filters for A1 and A2AAR binding were placed in scintillation vials containing 5 mL of Hydrofluor scintillation buffer and counted using a Perkin Elmer Liquid Scintillation Analyzer (Tri-Carb 2810TR).” left out
Test compounds were prepared as 5-mM stock solutions in DMSO and stored frozen at −20° C.
Chinese hamster ovary (CHO) cells were generated by stably expressing the recombinant hA1 and hA3 and human embryonic kidney (HEK) 293 cells stably expressing the hA2AAR in DMEM and F12 (1:1) supplemented with 10% fetal bovine serum, 100 units/mL penicillin, 100 μg/mL streptomycin, and 2 μmol/mL glutamine. 800 μg/mL Geneticin were added to the A2A media and 500 μg/mL hygromycin to the A1 and A3 media. After harvesting the cells, they were homogenized with an electric homogenizer for 10 sec, pipetted them into 1-mL vials, and then stored them at −80° C. until the binding experiments were conducted. The protein concentration was measured with a BCA Protein Assay Kit from Pierce Biotechnology (Rockford, Ill.).
Each tube in the binding assay contained 50 μL of increasing concentrations of the test ligand in Tris-HCl buffer (50 mM, pH 7.5) containing 10 mM MgCl2, 50 μL of the appropriate agonist radioligand, and 100 μL membrane suspension, added sequentially. […] For the A2AAR (20 μg/tube), the radioligand [^3H]CGS21680 was used (−10 nM). […] The mixtures were incubated at 25° C. for 60 min in a shaking water bath. The binding reactions were terminated by filtration through Brandel GF/B filters under a reduced pressure with a M-24 cell harvester (Brandel, Gaithersburg, Md.). Filters were washed three times with 3 mL 50-mM ice-cold Tris-HCl buffer (pH 7.5). […] The filters were counted for A3AR binding with a Packard Cobra II γ-counter (PerkinElmer). The Ki values were determined with GraphPad Prism for all assays.

| Ki (human A1 AR) | inhibition at 10 µM (hA2AAR) | Ki (human A3AR) | inhibition at 10 µM (human A1 AR) | Ki (hA2AAR; Example 7, agonist radioligand [3H]46, HEK293, read-out: AR Affinity Ki, nM, A2A) | SMILES |
| --- | --- | --- | --- | --- | --- |
| 1290 ± 290 nM | 25.2% | 30.1 ± 13 nM | – | – | CNC(=O)[C@@]12C[C@@H]1[C@@H](n1cnc3c(NCc4cccc(C#CCCCCCc5cn(-c6ccc(F)c([N+](=O)[O-])c6)nn5)c4)nc(Cl)nc31)[C@H](O)[C@@H]2O [Compound 205, (1S,2R,3S,4R,5S)-4-(2-Chloro-6-(3-(7-(1-(4-fluoro-3-nitrophenyl)-1H-1,2,3-triazol-4-yl)hept-1-ynyl)benzylamino)-9H-purin-9-yl)-2,3-dihydroxybicyclo[3.1.0]hexane-1-carboxylic acid-N-methylamide] |
| – | 4.9% | 38.1 ± 14.4 nM | 38.4% | – | CNC(=O)[C@@]12C[C@@H]1[C@@H](n1cnc3c(NCc4cn(C56CC7CC(CC(C7)C5)C6)nn4)nc(Cl)nc31)[C@H](O)[C@@H]2O [Compound 220, (1S,2R,3S,4R,5S)-4-(2-Chloro-6-((1-(adamantyl)-1H-1,2,3-triazol-4-yl)methylamino)-9H-purin-9-yl)-2,3-dihydroxy-N-methylbicyclo[3.1.0]hexane-1-carboxamide] |
| 2420 ± 230 nM | 28.6% | 71.7 ± 54 nM | – | – | CNC(=O)[C@@]12C[C@@H]1[C@@H](n1cnc3c(NCc4cccc(C#CCCCCc5cn(-c6ccc(F)c([N+](=O)[O-])c6)nn5)c4)nc(Cl)nc31)[C@H](O)[C@@H]2O [Compound 204, (1S,2R,3S,4R,5S)-4-(2-Chloro-6-(3-(6-(1-(4-fluoro-3-nitrophenyl)-1H-1,2,3-triazol-4-yl)hex-1-ynyl)benzylamino)-9H-purin-9-yl)-2,3-dihydroxybicyclo[3.1.0]hexane-1-carboxylic acid-N-methylamide] |
| – | 22.5% | 2190 ± 160 nM | 38.6% | – | O[C@@H]1[C@H](O)[C@@H]2C[C@@H]2[C@H]1n1cnc2c(NCc3cn(C45CC6CC(CC(C6)C4)C5)nn3)nc(Cl)nc21 [Compound 224] |
| – | 19.3% | 9.1 ± 1.9 nM | 38% | – | CNC(=O)[C@@]12C[C@@H]1[C@@H](n1cnc3c(NCc4cn(-c5ccc(F)c([N+](=O)[O-])c5)nn4)nc(Cl)nc31)[C@H](O)[C@@H]2O [Compound 219a, (1S,2R,3S,4R,5S)-4-(2-Chloro-6-((1-(4-fluoro-3-nitrophenyl)-1H-1,2,3-triazol-4-yl)methylamino)-9H-purin-9-yl)-2,3-dihydroxy-N-methylbicyclo[3.1.0]hexane-1-carboxamide] |
| 5870 ± 830 nM | 28.3% | 302 ± 26 nM | – | – | C#CCNc1nc(Cl)nc2c1ncn2[C@H]1[C@H](O)[C@H](O)[C@@H]2C[C@@H]21 [Compound 222, (1R,2R,3S,4R,5S)-4-(2-Chloro-6-(prop-2-ynylamino)-9H-purin-9-yl) bicycle[3.1.0]hexane-2,3-diol] |
| 104 ± 24 nM | – | 8.1 ± 3.1 nM | – | 4950 ± 960 nM | C#CCCCC#Cc1cccc(CNc2nc(Cl)nc3c2ncn3[C@H]2[C@H](O)[C@H](O)[C@]3(C(=O)NC)C[C@H]23)c1 [Compound 200, (1S,2R,3S,4R,5S)-4-[2-Chloro-6-{3-(1,6-heptadiynylbenzylamino)}-9H-purin—9-yl]-2,3-dihydroxybicyclo[3.1.0]hexane-1-carboxylic acid N-methylamide] |
| 1720 ± 240 nM | 17% | 21.8 ± 5.3 nM | – | – | CNC(=O)[C@@]12C[C@@H]1[C@@H](n1cnc3c(NCc4cccc(C#CCCCCc5cn(C67CC8CC(CC(C8)C6)C7)nn5)c4)nc(Cl)nc31)[C@H](O)[C@@H]2O [Compound 206, (1S,2R,3S,4R,5S)-4-(2-Chloro-6-(3-(6-(1-(adamantyl)-1H-1,2,3-triazol-4-yl)hex-1-ynyl)benzylamino)-9H-purin-9-yl)-2,3-dihydroxybicyclo[3.1.0]hexane-1-carboxylic acid-N-methylamide] |
| – | 44.1% | 2500 ± 640 nM | 48.5% | – | C#CCCCCC#Cc1cccc(CNc2nc(Cl)nc3c2ncn3[C@H]2[C@H](O)[C@H](O)[C@@H]3C[C@@H]32)c1 [Compound 212, (1R,2R,3S,4R,5S)-4-(2-Chloro-6-(3-(octa-1,7-diynyl)benzylamino)-9H-purin-9-yl) bicyclo[3.1.0]hexane-2,3-diol] |
